Measured values taken from patent US20100048696A1, “AGRICULTURAL DISEASE CONTROL AGENT” (Idemitsu Kosan Co., Ltd., priority 2007, published 2010).
Read-outs that look alike come from different tables or passages of the source.

Legend:
Format in all cases: cell-based
Settings in all cases: 5 minutes
Burkholderia glumae = test: Material disinfection test
Pyricularia oryzae = system: Pyricularia oryzae
Fusarium oxysporum = test: Material disinfection test
Botrytis cinerea = test: Material disinfection test
Burkholderia plantarii = test: Material disinfection test
Rhizoctonia solani = test: Material disinfection test
Ralstonia solanacearum = system: Ralstonia solanacearum
Pythium ultimum = test: Material disinfection test
Erwinia chrysanthemi = test: Material disinfection test

Row | SMILES | Average value of viable bacteria counts on all materials examined (Burkholderia glumae; 10 times solution sprayed) | Average value of viable bacteria counts on all materials examined (Burkholderia glumae; 50 times solution sprayed) | average value of viable filamentous fungi counts on all materials examined (Pyricularia oryzae; 10 times solution sprayed) | average value of viable filamentous fungi counts on all materials examined (Pyricularia oryzae; 50 times solution sprayed) | average value of viable filamentous fungi counts on all materials examined (Fusarium oxysporum; 10 times solution sprayed) | average value of viable filamentous fungi counts on all materials examined (Fusarium oxysporum; 50 times solution sprayed) | average value of viable filamentous fungi counts on all materials examined (Botrytis cinerea; 10 times solution sprayed) | average value of viable filamentous fungi counts on all materials examined (Botrytis cinerea; 50 times solution sprayed) | Average value of viable bacteria counts on all materials examined (Burkholderia plantarii; 10 times solution sprayed) | Average value of viable bacteria counts on all materials examined (Burkholderia plantarii; 50 times solution sprayed) | average value of viable filamentous fungi counts on all materials examined (Rhizoctonia solani; 10 times solution sprayed) | average value of viable filamentous fungi counts on all materials examined (Rhizoctonia solani; 50 times solution sprayed) | Average value of viable bacteria counts on all materials examined (Ralstonia solanacearum; 10 times solution sprayed) | Average value of viable bacteria counts on all materials examined (Ralstonia solanacearum; 50 times solution sprayed) | average value of viable filamentous fungi counts on all materials examined (Pythium ultimum; 10 times solution sprayed) | average value of viable filamentous fungi counts on all materials examined (Pythium ultimum; 50 times solution sprayed) | Average value of viable bacteria counts on all materials examined (Erwinia chrysanthemi; 10 times solution sprayed) | Average value of viable bacteria counts on all materials examined (Erwinia chrysanthemi; 50 times solution sprayed)
1 | CC(=O)O [Acetic acid] | 5.0 × 10^2 cfu/ml | 3.3 × 10^7 cfu/ml | 98 cfu/ml | 1.5 × 10^2 cfu/ml | 76 cfu/ml | 4.2 × 10^2 cfu/ml | 65 cfu/ml | 2.6 × 10^2 cfu/ml | 1.2 × 10^3 cfu/ml | 8.3 × 10^6 cfu/ml | 33 cfu/ml | 3.1 × 10^2 cfu/ml | 2.8 × 10^2 cfu/ml | 6.0 × 10^8 cfu/ml | 58 cfu/ml | 6.8 × 10^3 cfu/ml | 3.2 × 10^3 cfu/ml | 1.1 × 10^7 cfu/ml
2 | O=C1O[C@H]([C@@H](O)CO)C(O)=C1O [Ascorbic acid] | 1.1 × 10^8 cfu/ml | 3.2 × 10^8 cfu/ml | 4.2 × 10^4 cfu/ml | 6.2 × 10^4 cfu/ml | 3.2 × 10^5 cfu/ml | 4.7 × 10^5 cfu/ml | 4.5 × 10^5 cfu/ml | 5.0 × 10^5 cfu/ml | 1.6 × 10^7 cfu/ml | 1.8 × 10^7 cfu/ml | 1.3 × 10^5 cfu/ml | 2.0 × 10^5 cfu/ml | 8.5 × 10^8 cfu/ml | 1.0 × 10^9 cfu/ml | 2.3 × 10^4 cfu/ml | 1.5 × 10^4 cfu/ml | 1.0 × 10^8 cfu/ml | 1.0 × 10^8 cfu/ml
3 | O=C(O)CC(O)(CC(=O)O)C(=O)O [Citric acid] | 2.6 × 10^8 cfu/ml | 1.7 × 10^8 cfu/ml | – | 3.2 × 10^4 cfu/ml | 3.7 × 10^5 cfu/ml | 3.4 × 10^5 cfu/ml | 2.6 × 10^5 cfu/ml | 4.6 × 10^5 cfu/ml | 3.8 × 10^7 cfu/ml | 1.0 × 10^7 cfu/ml | 2.0 × 10^5 cfu/ml | 1.7 × 10^5 cfu/ml | 1.1 × 10^9 cfu/ml | 1.5 × 10^9 cfu/ml | 2.8 × 10^4 cfu/ml | 1.7 × 10^4 cfu/ml | 1.7 × 10^8 cfu/ml | 1.9 × 10^8 cfu/ml
4 | O=C(O)CC(O)C(=O)O (centres unmarked) [Malic acid] | 3.6 × 10^8 cfu/ml | 5.2 × 10^8 cfu/ml | 4.6 × 10^4 cfu/ml | 5.0 × 10^4 cfu/ml | 1.8 × 10^5 cfu/ml | 4.5 × 10^5 cfu/ml | 3.7 × 10^5 cfu/ml | 2.9 × 10^5 cfu/ml | 1.0 × 10^7 cfu/ml | 3.2 × 10^7 cfu/ml | 2.1 × 10^5 cfu/ml | 1.8 × 10^5 cfu/ml | 9.5 × 10^8 cfu/ml | 7.8 × 10^8 cfu/ml | 2.5 × 10^4 cfu/ml | 4.3 × 10^4 cfu/ml | 1.4 × 10^8 cfu/ml | 1.2 × 10^8 cfu/ml
5 | O=C(O)CCC(=O)O [Succinic acid] | 1.0 × 10^8 cfu/ml | 1.5 × 10^8 cfu/ml | 3.2 × 10^4 cfu/ml | 3.1 × 10^4 cfu/ml | 2.3 × 10^5 cfu/ml | 4.5 × 10^5 cfu/ml | 3.5 × 10^5 cfu/ml | 4.3 × 10^5 cfu/ml | 2.5 × 10^7 cfu/ml | 2.6 × 10^7 cfu/ml | 1.5 × 10^5 cfu/ml | 2.1 × 10^5 cfu/ml | 1.1 × 10^9 cfu/ml | 8.5 × 10^8 cfu/ml | 7.8 × 10^3 cfu/ml | 3.0 × 10^4 cfu/ml | 1.0 × 10^8 cfu/ml | 1.0 × 10^8 cfu/ml
